Experimental data taken from publication PMC8434491, “Targeting the Integrated Stress Response Kinase GCN2 to Modulate Retroviral Integration” (Molecules, 2021).

Tests used:
[1] = target: T1, IN's phosphorylation catalyzed by GCN2 (Homo sapiens, UniProt Q9P2K8); assay: In vitro phosphorylation assay: phosphorylation of IN catalyzed by GCN2; assay type: biochemical, human GCN2 / HIV-1 IN
T1 construct: expressed as a truncated version (192-1024) in fusion after a glutathione S-transferase tag; purchased SignalChem (GCN2); IN made in house in E. coli BL21 pLys E12-11G; host or cells: E. coli BL21 pLys (IN)
T1 sequence (Q9P2K8 192-1024): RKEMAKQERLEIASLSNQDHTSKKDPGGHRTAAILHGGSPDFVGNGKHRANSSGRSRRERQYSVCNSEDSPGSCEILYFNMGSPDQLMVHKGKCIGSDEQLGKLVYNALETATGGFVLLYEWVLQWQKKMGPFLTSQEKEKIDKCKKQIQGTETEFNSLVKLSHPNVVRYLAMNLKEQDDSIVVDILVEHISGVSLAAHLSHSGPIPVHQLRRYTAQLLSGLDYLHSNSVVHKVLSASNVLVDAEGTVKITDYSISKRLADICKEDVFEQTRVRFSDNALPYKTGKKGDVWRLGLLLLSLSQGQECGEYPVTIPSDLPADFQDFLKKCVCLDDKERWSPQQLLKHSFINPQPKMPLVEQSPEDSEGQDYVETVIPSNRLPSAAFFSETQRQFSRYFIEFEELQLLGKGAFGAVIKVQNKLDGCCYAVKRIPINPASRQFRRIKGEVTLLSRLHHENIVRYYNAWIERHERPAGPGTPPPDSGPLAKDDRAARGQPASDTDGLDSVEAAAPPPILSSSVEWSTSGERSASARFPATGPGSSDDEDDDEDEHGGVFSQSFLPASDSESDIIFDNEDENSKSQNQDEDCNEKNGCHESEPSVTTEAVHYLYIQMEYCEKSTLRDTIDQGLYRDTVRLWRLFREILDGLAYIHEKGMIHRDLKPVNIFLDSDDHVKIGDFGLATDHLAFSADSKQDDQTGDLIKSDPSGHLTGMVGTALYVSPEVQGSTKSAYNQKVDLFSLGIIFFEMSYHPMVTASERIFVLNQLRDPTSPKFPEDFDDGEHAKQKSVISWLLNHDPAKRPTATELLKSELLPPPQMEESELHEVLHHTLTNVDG
Protocol: Enzymes. GCN2 was purchased from SignalChem (EIF2AK4, cat. #E12-11G). […] Recombinant full-length IN was expressed in E. coli BL21 pLys (IPTG induction) and purified on a nickel chelating column, as described. Integrity and purity were checked by direct Coomassie coloration of elution fractions on SDS-PAGE before dialysis to remove imidazole.
In vitro phosphorylation assay. […] Reactions (20 µL) were stopped after a 60 min incubation at 30 °C by adding 10 µL of loading buffer [80 mM Tris-HCl pH 6.8, 100 mM DTT, 10% glycerol, 1% sodium dodecyl sulfate (SDS) and 0.05% bromophenol blue]. Samples were then loaded onto a 10% denaturating SDS-PAGE. After protein separation (120 V for 120 min) the gel was stained using Coomassie Brilliant Blue R-250. Autoradiography was performed using an imaging plate (Fujifilm, Tokyo, Japan) and images were obtained with a FLA-5000 Imaging System (Fujifilm).

[2] = target: T2, HIV-1 IN (Human immunodeficiency virus type 1 group M subtype B, UniProt P04585); assay: Integrase reaction, strand transfer (ST), gel-based; assay type: biochemical; details: serial dilutions from 100 µM to 45.7 nM
T2 construct: Recombinant full-length IN was expressed in E. coli BL21 pLys; 6xHis; made in house; host or cells: E. coli BL21 pLys
Protocol: Oligonucleotides. Oligonucleotides were purchased from Integrated DNA Technologies, Inc. (Leuven, Belgium), purified on polyacrylamide gel through electro-elution and dissolve in water. 19T ([…]) and 21B ([…]) correspond to the cleaved and non-cleaved strands specifically recognized by HIV-1 IN. Radiolabeling of 19T at the 5′-end was performed with [γ-^32P] ATP (Perkin-Elmer, Villebon-sur-Yvette, France) using T4 polynucleotide kinase (Promega, Charbonnières-les-Bains, France), according to the manufacturers’ instructions. Unincorporated isotopes were removed using illustra microspin G-25 Columns (Cytiva life sciences, Amersham, Little Chalfont, United Kingdom). DNA duplexes were annealed using an equimolar ratio of the complementary strand 21B, heating to 95 °C, and slow cooling to room temperature.
Integrase reactions. IN reactions were carried out by adding molecules or an equivalent volume of 100% DMSO (dimethyl sulfoxide, used as the drug solvent) to a mixture of 20 nM duplex DNA (19T/21B) and 400 nM IN in 50 mM MOPS pH 7.2, 7.5 mM MgCl2, and 14 mM 2-mercaptoethanol. Reactions were performed at 37 °C for 1 h and quenched by addition of an equal volume (10 µL) of loading buffer [formamide containing 1% SDS (sodium dodecyl sulfate), 0.25% bromophenol blue, and xylene cyanol]. Reaction products were separated in 16% polyacrylamide denaturing sequencing gels. Dried gels were visualized using a FLA-5000 imaging system (Fujifilm). Densitometric analyses were performed using the ImageQuant 5.1 software (GE Healthcare, Chicago, IL, USA) and data analyzed using Prism 6.05 software (GraphPad, San Diego, CA, USA).

[3] = target: T3, GCN2 (Homo sapiens, UniProt Q9P2K8); assay: In vitro phosphorylation assay: GCN2 activation (auto-phosphorylation); assay type: biochemical; details: without IN, read-out: GCN2 auto-phosphorylation signal, % of the DMSO control
T3 construct: expressed as a truncated version (192-1024) in fusion after a glutathione S-transferase tag; purchased SignalChem E12-11G
T3 sequence (Q9P2K8 192-1024): T1 sequence (Q9P2K8 192-1024)

O=C1c2c(O)ccc(O)c2C(=O)c2c(NCCNCCO)ccc(NCCNCCO)c21 [NSC279836, Mitoxantrone]
concentration giving full inhibition of IN phosphorylation ([1]; serial dilutions from 300 µM to 137 nM): 300 µM | apparent IC50, IN phosphorylation ([1]; serial dilutions from 300 µM to 137 nM, in words): low micromolar range | inhibition at 100 µM ([1]; single dose of 100 µM, compared to DMSO, read-out: decrease (inhibition) in IN phosphorylation): ~65% | concentrations giving full inhibition of ST activity ([2]; only IN present): above 11 µM | effect on IN strand transfer activity ([2]; only IN present): active | apparent IC50, ST activity ([2]; in words): low-micromolar range | remaining activity at 100 µM [3]: 145%
